target: alanyl aminopeptidases (APN) (Homo sapiens, UniProt P15144); assay: Inhibition of alanyl aminopeptidase enzymatic activity, fluorogenic substrate (Ala)2-rhodamine 110; type: biochemical; details: Table 3, starred values = ID50; read-out: ID50 APN (values marked with *)
Description: The inhibition characteristics measured are referred to as IC-50 values or ID50 values (the latter marked with “*”) for said enzyme. The enzymatic activity was determined by means of the fluorogenic substrate/product (Ala)2-rhodamine 110.

alanyl aminopeptidases (APN), sequence (P15144 whole entry, species assumed): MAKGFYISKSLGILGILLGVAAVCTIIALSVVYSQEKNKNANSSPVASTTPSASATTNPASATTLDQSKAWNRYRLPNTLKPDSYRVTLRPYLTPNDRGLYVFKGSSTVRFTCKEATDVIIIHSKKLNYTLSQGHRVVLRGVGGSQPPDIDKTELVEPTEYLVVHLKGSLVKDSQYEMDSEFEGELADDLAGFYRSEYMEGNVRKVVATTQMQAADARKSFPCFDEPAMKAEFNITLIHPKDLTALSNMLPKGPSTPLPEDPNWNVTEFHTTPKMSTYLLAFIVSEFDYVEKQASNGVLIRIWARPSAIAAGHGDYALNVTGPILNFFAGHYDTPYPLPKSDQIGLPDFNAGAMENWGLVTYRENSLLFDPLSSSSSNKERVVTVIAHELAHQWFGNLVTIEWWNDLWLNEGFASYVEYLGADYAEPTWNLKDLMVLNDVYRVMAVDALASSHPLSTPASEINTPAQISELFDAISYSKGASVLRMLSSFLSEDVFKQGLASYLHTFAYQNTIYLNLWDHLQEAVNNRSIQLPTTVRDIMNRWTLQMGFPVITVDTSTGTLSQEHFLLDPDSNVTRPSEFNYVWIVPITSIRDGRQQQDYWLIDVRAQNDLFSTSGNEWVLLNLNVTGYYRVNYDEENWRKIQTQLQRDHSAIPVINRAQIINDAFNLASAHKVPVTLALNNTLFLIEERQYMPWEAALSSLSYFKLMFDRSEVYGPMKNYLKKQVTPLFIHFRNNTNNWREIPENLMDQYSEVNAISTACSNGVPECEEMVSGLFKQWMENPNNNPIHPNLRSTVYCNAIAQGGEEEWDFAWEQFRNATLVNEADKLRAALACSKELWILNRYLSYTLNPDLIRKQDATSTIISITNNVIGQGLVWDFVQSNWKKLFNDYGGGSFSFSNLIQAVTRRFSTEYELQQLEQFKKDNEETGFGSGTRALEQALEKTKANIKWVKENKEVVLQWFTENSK

IC50 [µM] | SMILES
238 | COC(=O)c1cc(C(=O)NC2CCSC2=O)cc([N+](=O)[O-])c1 (centres unmarked) [A3.341]
294 | O=C(N/N=C/c1ccco1)c1ccc(NCc2ccccc2)cc1 [A3.346]
305 | O=C(N/N=C/c1ccco1)c1ccc([N+](=O)[O-])cc1 [A3.347]
323 | C/C(=N\NC(=O)c1ccn(C)n1)c1ccco1 [A3.349]
336 | CCc1ccc(N2C(=O)C3C(c4cccc(Cl)c4)OC4(C(=O)c5ccccc5C4=O)C3C2=O)cc1 (centres unmarked) [A3.350]
451 | CCOc1ccc(C(=O)N/N=C(/C)c2ccco2)cc1 [A3.352]

The remaining lines, values behind:

SMILES | IC50 [µM]
COc1ccc(C2C(C(=O)c3ccccc3)C(c3ccccc3)C(C(=O)NCc3ccc(F)cc3)N2C(=O)NC2CCCCC2)cc1 (centres unmarked) [A3.342] | 231
C/C(=C\c1ccc(C(C)C)cc1)C1NCC(c2ccc([N+](=O)[O-])cc2)O1 (centres unmarked) [A3.345] | 293
CC(C)(C)c1ccc2c(c1)C1c3ccc(C(C)(C)C)cc3C2C2C(=O)N(c3cccc(Cl)c3)C(=O)C12 (centres unmarked) [A3.348] | 321
C/C(=N\NC(=O)COc1ccc(C)cc1[N+](=O)[O-])c1ccco1 [A3.351] | 422

same assay, conditions: Table 4, unstarred values; read-out: IC50APN

IC50 [µM] | SMILES
4.8 | COc1ccc(/C=N/NC(=O)C2=C(C)Nc3ccccc3S2)cc1Cn1nc(C)c(Br)c1C [A4.002]
5.8 | O=C(N/N=C/c1cc(Cl)cc([N+](=O)[O-])c1O)c1ccccc1O [A4.005]
7.6 | CCN(CC)c1ccc(/C=C(\NC(=O)c2ccccc2)C(=O)N/N=C/c2ccc(O)c([N+](=O)[O-])c2)cc1 [A4.011]
8 | O=C(N/N=C\c1ccco1)c1ccc(S(=O)(=O)N2CCCCCC2)cc1 [A4.013]
12 | C/C(=N\NC(=O)CNC(=O)/C=C/c1ccco1)c1ccc2ccccc2c1 [A4.019]
12.2 | CCOc1cc(/C=N/NC(=O)CNC(=O)c2cccc(Cl)c2)ccc1OC(=O)c1cccs1 [A4.020]
12.5 | COCc1c(C(=O)N/N=C/c2ccc(C)o2)nnn1-c1nonc1N [A4.022]
13.2 | COc1cc(Br)cc(Br)c1OCC(=O)N/N=C/c1cc(Br)c(O)c(O)c1Br [A4.024]
13.5 | COC(=O)N/N=C(C)\C=C\c1ccco1 [A4.025]
13.6 | O=C(COc1ccc(F)cc1)N/N=C/c1ccco1 [A4.026]
13.6 | CCc1ccc(-c2cc(C(=O)N/N=C/c3c(C)nn(-c4ccccc4)c3C)[nH]n2)cc1 [A4.027]
13.9 | O=C(COc1ccc2ccccc2c1)N/N=C/c1ccco1 [A4.029]
14.3 | O=C(N/N=C/c1ccco1)c1cc(C2CC2)n[nH]1 [A4.030]
14.4 | O=C(N/N=C/c1ccco1)c1cc(-c2ccc(F)cc2)n[nH]1 [A4.031]
15.6 | CC(C)C/C=N/NC(=O)c1ccc([N+](=O)[O-])cc1Cl [A4.035]
16 | O=C(N/N=C/c1ccco1)c1ccccc1O [A4.037]
16 | Cc1ccc(/C=N/NC(=O)COc2ccc(Cl)cc2)o1 [A4.038]

IC50 [µM] | SMILES
18.4 | Cc1ccc(/C=N/NC(=O)c2ccccc2OCc2ccccc2)o1 [A4.045]
18.7 | O=C(Nc1ccccc1C(=O)N/N=C/c1ccco1)c1ccc(Cl)cc1Cl [A4.046]
18.9 | Cc1ccc(/C=N/NC(=O)c2cccc(CC(=O)c3ccccc3C)c2)o1 [A4.047]
9.5 | Cc1cc(I)ccc1NC(=O)CCC(=O)N/N=C/c1ccco1 [A4.048]
20.6 | O=C(N/N=C/c1ccco1)c1cccc(NC(=O)c2ccccc2Cl)c1 [A4.057]
20.9 | O=C(N/N=C/c1ccco1)c1cc(-c2ccco2)n[nH]1 [A4.058]
21.8 | COc1ccc(C(=O)N/N=C/c2cc(Br)c(C)o2)cc1 [A4.060]
22.2 | Cc1ccc(/C=N/NC(=O)COc2ccccc2C)o1 [A4.061]
23 | CC1=NNC(=O)C1CCC(=O)N/N=C\C=C\c1ccco1 (centres unmarked) [A4.068]
23 | COc1cc(/C=N/NC(=O)/C(=C\c2ccc(N(C)C)cc2)NC(=O)c2ccccc2)cc([N+](=O)[O-])c1O [A4.069]
23.4 | COc1ccc(CCCC(=O)N/N=C/c2ccco2)cc1 [A4.071]
24.9 | Cc1ccc(C)n1-c1cccc(C(=O)N/N=C/c2cc(Br)c(O)c(Br)c2)c1 [A4.075]
26.3 | O=C(CCCOc1ccc(Cl)cc1Cl)N/N=C/c1ccco1 [A4.081]
26.4 | Cc1ccc(/C=N/NC2=NC(=O)CS2)o1 [A4.082]
26.4 | Cc1ccc(/C=N/NC(=O)c2cc(O)cc(O)c2)o1 [A4.083]
27.4 | Cc1nn(-c2ccccc2)c(C)c1-c1cc(C(=O)N/N=C/c2ccco2)[nH]n1 [A4.087]
27.5 | CC(/C=N/NC(=O)c1ccco1)=C\c1ccco1 [A4.088]

Further lines, the molecule ahead of its results:

SMILES | IC50 [µM]
C/C(CC1N=NC([N+](=O)[O-])=N1)=N/NC(=O)COc1ccccc1[N+](=O)[O-] (centres unmarked) [A4.001] | 3.4
COc1cc(Br)ccc1OCC(=O)N/N=C/c1cc(O)c(O)c(Br)c1Br [A4.003] | 5
CCN(CC)c1ccc(/C=C(/NC(=O)c2ccccc2)C(=O)N/N=C/c2cc(I)c(O)c(I)c2)cc1 [A4.004] | 5.1
Cc1c(Cl)cccc1NC(=O)C(=O)N/N=C/c1c(OCc2ccccc2)ccc2ccccc12 [A4.006] | 6.6
CCc1cccc(CC)c1NC(=S)N/N=C1\C(=O)N(CN2CC(C)CC(C)C2)c2ccccc21 (centres unmarked) [A4.007] | 6.7
Cc1ccc(/C=N/NC(=O)c2cn(-c3nonc3N)nn2)o1 [A4.008] | 6.9
O=C(Cc1ccc(Br)c2ccccc12)N/N=C/c1ccc([N+](=O)[O-])c(O)c1 [A4.009] | 7
COc1cc(Br)cc(Br)c1OCC(=O)N/N=C/c1cc(O)c(O)c(Br)c1Br [A4.010] | 7.2
Cc1cccc(NCC(=O)N/N=C/c2cc(Br)c(O)c(O)c2Br)c1 [A4.012] | 7.8
Cc1ccc(/C=N/NC(=O)c2cccc(NC(=O)c3ccc(F)cc3)c2)o1 [A4.014] | 9.8
Cc1ccc(/C=N/NC(=O)c2cccc(Cl)c2)o1 [A4.015] | 10.5
Cc1ccc(/C=N/NC(=O)c2cn(-c3nonc3N)nn2)o1 [A4.016] | 10.9
COc1cc(Br)ccc1OCC(=O)N/N=C/C=C/c1ccco1 [A4.017] | 11
CC(NC(=O)C(=O)N/N=C\c1cc([N+](=O)[O-])ccc1O)c1ccccc1 (centres unmarked) [A4.018] | 11.4
Cc1nc(C)c(C(=O)N/N=C/c2ccco2)s1 [A4.021] | 12.3
O=C(COc1cccc2ccccc12)N/N=C/c1ccco1 [A4.023] | 12.9
O=C(NN=C(/C=C/c1ccccc1)c1ccccc1)c1cc2ccccc2cc1O [A4.028] | 13.7
N/C(=N\N=C\c1ccco1)c1nonc1N [A4.032] | 14.6
COc1ccc(OCC(=O)N/N=C/c2cc(Br)c(O)c(O)c2Br)c(Br)c1 [A4.033] | 15
O=C(CNC(=O)C(c1ccccc1)c1ccccc1)N/N=C/c1ccco1 [A4.034] | 15.6
O=C(N/N=C/C=C\c1ccco1)c1ccco1 [A4.036] | 16
CC(C)c1cc(C(=O)N/N=C/c2ccco2)[nH]n1 [A4.040] | 16.6
COc1ccc(/C=C(/NC(=O)c2ccccc2)C(=O)N/N=C\C=C\c2ccc(C)o2)cc1OC [A4.041] | 16.7
O=C(N/N=C/c1ccco1)c1ccc(O)cc1 [A4.042] | 16.8
COc1cc(/C=N/NC(=O)c2cc(-c3ccco3)n[nH]2)cc(OC)c1OC [A4.043] | 17
Cc1ccc(/C=N/NC(=O)c2ccccc2Cl)o1 [A4.044] | 17.7

SMILES | IC50 [µM]
Cc1ccccc1S(=O)(=O)Nc1cccc(C(=O)N/N=C/c2ccco2)c1 [A4.049] | 19.2
CCCOc1ccccc1-c1c[nH]c(C(=O)N/N=C/c2ccco2)c1 [A4.051] | 19.5
O=C(N/N=C/c1cc(Br)cc(Br)c1OC(=O)c1ccccc1)/C(=C/c1ccc2c(c1)OCO2)NC(=O)c1ccccc1 [A4.052] | 19.8
COc1ccc(/C(C)=N/NC(=O)CNC(=O)/C=C\c2ccco2)cc1OC [A4.053] | 19.9
O=C(N/N=C/c1cc([N+](=O)[O-])ccc1O)c1ccc(O)cc1O [A4.054] | 20.2
CC(=O)Oc1ccc([N+](=O)[O-])cc1/C=N/NC(=O)COc1cc(C)ccc1C(C)C [A4.055] | 20.3
COc1cc(Br)ccc1OCC(=O)N/N=C/c1cc(Br)c(O)c(O)c1Br [A4.056] | 20.5
O=C(COc1ccc2ccccc2c1)N/N=C/c1c(Br)cc(Br)c(O)c1Br [A4.059] | 21
O=C(N/N=C/c1ccco1)c1ccc(=O)[nH]n1 [A4.063] | 22.4
O=C(N/N=C/c1ccco1)c1cccc(NC(=O)c2cccc(Br)c2)c1 [A4.064] | 22.4
COc1ccc(C(=O)N/N=C/c2ccco2)cc1 [A4.065] | 22.6
CCN(CC)c1ccc(/C=N/NC(=O)CNC(=O)/C=C/c2ccco2)cc1 [A4.066] | 22.8
Cc1ccc(/C=N/NC(=O)c2ccc(NC(=O)c3ccccc3C)cc2)o1 [A4.067] | 22.8
Cc1cc(C)cc(OCC(=O)N/N=C/c2ccco2)c1 [A4.070] | 23.4
Cc1ccc(/C=N/NC(=O)c2ccc(O)cc2)o1 [A4.072] | 23.4
O=C(N/N=C/c1cc(Br)c(O)c(Br)c1O)/C(=C\c1ccc2c(c1)OCO2)NC(=O)c1ccccc1 [A4.073] | 23.6
O=C(N/N=C\c1ccco1)c1ccc(Br)cc1 [A4.074] | 24.5
COc1cc(/C=N/NC(=O)/C(=C/c2cccs2)NC(=O)c2ccccc2)cc([N+](=O)[O-])c1O [A4.076] | 25.1
CCc1ccc(OCC(=O)N/N=C\c2ccco2)c([N+](=O)[O-])c1 [A4.077] | 25.1
O=C(N/N=C/c1cc([N+](=O)[O-])ccc1O)c1ccc(Cl)cc1 [A4.078] | 25.7
CCOc1ccc(Br)cc1C(=O)N/N=C/c1ccco1 [A4.079] | 25.8
O=C(N/N=C/c1ccco1)c1cccc(NC(=O)c2ccc(F)cc2)c1 [A4.080] | 25.9
Cc1ccc(/C=N/NC(=O)c2nnn(-c3nonc3N)c2CN2CCOCC2)o1 [A4.084] | 26.7
CCCCCC(=O)N/N=C/c1ccco1 [A4.085] | 26.7
CCCOc1ccc(/C=C(\NC(=O)c2ccccc2)C(=O)N/N=C/c2ccco2)cc1 [A4.086] | 27.3

From US20070037752A1, “Novel alanyl-amino peptidase inhibitors for functionally influencing different cells and treating immunological, inflammatory, neuronal, and other diseases” (priority 2003, published 2007)
